Measured values as given in patent US20220024921A1, “1,3,4-OXADIAZOLONE COMPOUND AND PHARMACEUTICAL” (NIPPON SHINYAKU CO., LTD., priority 2018, published 2022).
Where a name gives a salt, the structure may show the parent alone.

target: T1, PIM1 serine/threonine kinase (Homo sapiens, UniProt P11309); assay: PIM1 serine/threonine kinase inhibitory effect; assay type: biochemical; conditions: PIM1 serine/threonine kinase activity; ATP 40 μM; 30° C., 30 minutes
T1 construct: purchased Carna Bioscience, Inc
T1 sequence (P11309 whole entry): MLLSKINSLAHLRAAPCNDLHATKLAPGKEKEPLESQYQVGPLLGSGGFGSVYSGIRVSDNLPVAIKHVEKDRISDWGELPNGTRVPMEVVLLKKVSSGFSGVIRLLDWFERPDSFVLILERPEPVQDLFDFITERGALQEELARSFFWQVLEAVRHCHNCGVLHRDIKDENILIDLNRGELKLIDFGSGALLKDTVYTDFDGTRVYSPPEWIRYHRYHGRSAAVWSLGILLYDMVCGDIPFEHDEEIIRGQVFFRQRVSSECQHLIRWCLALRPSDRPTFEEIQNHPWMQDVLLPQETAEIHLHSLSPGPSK
Description: Each test substance was prepared to 10 mM with dimethylsulfoxide (DMSO), and further diluted with DMSO so as to have concentrations of 1000, 300, 100, 30, 10, 3, 1, 0.3, 0.1, 0.03, 0.01, and 0.001 μM. Moreover, each dilution was further diluted 33.3-fold with an assay buffer to prepare a test substance solution. The composition of the assay buffer was 50 mM HEPES (pH 7.0), 0.02% NaN3, 0.01% Bovine Serum Albumin, 0.1 mM Orthovanadate, 1 mM Dithiothreitol, and 5 mM MgCl2.
5 μL of each test substance solution was added to 384-well plates (n=2), and then 2.5 μL of a substrate solution (substrate 3-biotin (Cisbio Bioassays SAS), final concentration in the reaction solution: 0.5 μM) and 2.5 μL of an ATP solution (in the cases of PIM1, 2, 3, the final concentrations in the reaction solutions were 40, 2, and 10 μM, respectively) were added, 5 μL of each of PIM1, 2, 3 serine/threonine kinase solutions (Carna Bioscience, Inc., the final concentrations in the reaction solutions were 0.15, 1.6, and 0.25 μg/ml, respectively) was finally added, and the mixture was reacted at 30° C. for 30 minutes. The test substance concentrations in the reaction solutions are 10000, 3000, 1000, 300, 100, 30, 10, 3, 1, 0.3, 0.1, and 0.01 nM.
Thereafter, 15 μL of each detection solution (62.5 nM Streptavidin-XL665 (Cisbio Bioassays SAS), […] STK antibody-Cryptate (Cisbio Bioassays SAS), 50 mM HEPES (pH 7.0), 0.8 M KF, 0.1% Bovine Serum Albumin, 20 mM ethylenediaminetetraacetic acid) was added to each well. After stirring, the mixture was reacted at 30° C. for 1 hour. Absorbance (OD620, OD665) at 620 and 665 nm was measured with a microplate reader (SpectraMax M5e, Molecular Devices, LLC).
Non-linear regression analysis was performed by an SAS system (SAS Institute Inc.) using the ratio (OD665/OD620) of the measured absorbance to calculate a test substance concentration (IC50) that inhibits PIM1 serine/threonine kinase activity by 50%.

| SMILES | IC50 [nM] |
| --- | --- |
| O=c1[nH]nc(-c2ccc(C(F)(F)F)c(NC[C@H]3CC[C@H](CO)CC3)c2)o1 [Example 120, 5-[3-({[(1r,4r)-4-(hydroxymethyl)cyclohexyl]methyl}amino)-4-(trifluoromethyl)phenyl]-1,3,4-oxadiazol-2(3H)-one] | 590 |
| CC(C)(C)OC(=O)[C@H]1CC[C@H](CNc2cc(-c3n[nH]c(=O)o3)ccc2C(F)(F)F)CC1 [Example 118, tert-butyl (1r,4r)-4-{[5-(5-oxo-4,5-dihydro-1,3,4-oxadiazol-2-yl)-2-(trifluoromethyl)anilino]methyl}cyclohexane-1-carboxylate] | 7300 |
| CC(C)(C)OC(=O)NCc1ccc(-c2cc(-c3n[nH]c(=O)o3)ccc2C(F)(F)F)cc1 [Example 19, tert-butyl {[5′-(5-oxo-4,5-dihydro-1,3,4-oxadiazol-2-yl)-2′-(trifluoromethyl)[1,1′-biphenyl]-4-yl]methyl}carbamate] | 1500 |
| NC(=O)[C@H]1CC[C@H](CNc2cc(-c3n[nH]c(=O)o3)ccc2C(F)(F)F)CC1 [Example 121, (1r,4r)-4-{[5-(5-oxo-4,5-dihydro-1,3,4-oxadiazol-2-yl)-2-(trifluoromethyl)anilino]methyl}cyclohexane-1-carboxamide] | 120 |
| O=c1[nH]nc(-c2ccc(C(F)(F)F)c(-c3ccc(OCC4CCNCC4)cc3)c2)o1 [Example 23, 5-{4′-[(piperidin-4-yl)methoxy]-6-(trifluoromethyl)[1,1′-biphenyl]-3-yl}-1,3,4-oxadiazol-2(3H)-one hydrochloride] | 110 |
| CC(C)(C)OC(=O)N1CCN(c2cc(-c3n[nH]c(=O)o3)ccc2Cl)CC1 [Example 7, tert-butyl 4-[2-chloro-5-(5-oxo-4,5-dihydro-1,3,4-oxadiazol-2-yl)phenyl]piperazine-1-carboxylate] | 4100 |
| NCc1cccc(-c2cc(-c3n[nH]c(=O)o3)ccc2C(F)(F)F)c1 [Example 21, 5-[3′-(aminomethyl)-6-(trifluoromethyl)[1,1′-biphenyl]-3-yl]-1,3,4-oxadiazol-2(3H)-one hydrochloride] | 160 |
| N[C@H]1CC[C@H](CNc2cccc(-c3n[nH]c(=O)o3)c2)CC1 [Example 62, 5-[3-({[(1r,4r)-4-aminocyclohexyl]methyl}amino)phenyl]-1,3,4-oxadiazol-2(3H)-one hydrochloride] | 140 |
| CC(=O)N1CCC(N(C)Cc2cc(-c3n[nH]c(=O)o3)ccc2Cl)CC1 [Example 215, 5-(3-{[(1-acetylpiperidin-4-yl)(methyl)amino]methyl}-4-chlorophenyl)-1,3,4-oxadiazol-2(3H)-one hydrochloride] | 8800 |
| CN(Cc1cc(-c2n[nH]c(=O)o2)ccc1Cl)C1CCNCC1 [Example 205, 5-(4-chloro-3-{[methyl(piperidin-4-yl)amino]methyl}phenyl)-1,3,4-oxadiazol-2(3H)-one dihydrochloride] | 290 |
| CC(C)(C)OC(=O)NCc1cccc(-c2cc(-c3n[nH]c(=O)o3)ccc2Cl)c1 [Example 17, tert-butyl {[2′-chloro-5′-(5-oxo-4,5-dihydro-1,3,4-oxadiazol-2-yl)[1,1′-biphenyl]-3-yl]methyl}carbamate] | 1300 |
| COc1ccc(-c2n[nH]c(=O)o2)cc1N[C@@H](C)C1CCNCC1 [Example 82, 5-(4-methoxy-3-{[(1S)-1-(piperidin-4-yl)ethyl]amino}phenyl)-1,3,4-oxadiazol-2(3H)-one dihydrochloride] | 71 |
| C[C@H](Nc1cc(-c2n[nH]c(=O)o2)ccn1)C1CCNCC1 [Example 112, 5-(2-{[(1S)-1-(piperidin-4-yl)ethyl]amino}pyridin-4-yl)-1,3,4-oxadiazol-2(3H)-one dihydrochloride] | 600 |
| O=c1[nH]nc(-c2ccc(Cl)c(N3CCNCC3)c2)o1 [Example 8, 5-[4-chloro-3-(piperazin-1-yl)phenyl]-1,3,4-oxadiazol-2(3H)-one hydrochloride] | 810 |
| C[C@H](Nc1cc(-c2n[nH]c(=O)o2)ccc1S(C)(=O)=O)C1CCNCC1 [Example 128, 5-[4-(methanesulfonyl)-3-{[(1S)-1-(piperidin-4-yl)ethyl]amino}phenyl]-1,3,4-oxadiazol-2(3H)-one hydrochloride] | 82 |
| O=c1[nH]nc(-c2ccc(C(F)(F)F)c(NC[C@H]3CC[C@H](C(=O)O)CC3)c2)o1 [Example 119, (1r,4r)-4-{[5-(5-oxo-4,5-dihydro-1,3,4-oxadiazol-2-yl)-2-(trifluoromethyl)anilino]methyl}cyclohexane-1-carboxylic acid] | 1800 |

These reach a lower IC50. Values come first.

| IC50 [nM] | SMILES |
| --- | --- |
| 56 | C[C@H](Nc1cc(-c2n[nH]c(=O)o2)ccc1F)C1CCNCC1 [Example 80, 5-(4-fluoro-3-{[(1S)-1-(piperidin-4-yl)ethyl]amino}phenyl)-1,3,4-oxadiazol-2(3H)-one hydrochloride] |
| 45 | NC1CCN(c2cc(-c3n[nH]c(=O)o3)ccc2C(F)(F)F)CC1 [Example 9, 5-[3-(4-aminopiperidin-1-yl)-4-(trifluoromethyl)phenyl]-1,3,4-oxadiazol-2(3H)-one hydrochloride] |
| 40 | NCc1ccc(Nc2cc(-c3n[nH]c(=O)o3)ccc2C(F)(F)F)cc1 [Example 41, 5-{3-[4-(aminomethyl)anilino]-4-(trifluoromethyl)phenyl}-1,3,4-oxadiazol-2(3H)-one hydrochloride] |
| 36 | Cc1c(-c2n[nH]c(=O)o2)cc(Cl)c(Cl)c1N[C@@H](C)C1CCNCC1 [Example 93, 5-(4,5-dichloro-2-methyl-3-{[(1S)-1-(piperidin-4-yl)ethyl]amino}phenyl)-1,3,4-oxadiazol-2(3H)-one hydrochloride] |
| 36 | C[C@H](Nc1cc(-c2n[nH]c(=O)o2)cc(C2CC2)c1Cl)C1CCNCC1 [Example 102, 5-(4-chloro-3-cyclopropyl-5-{[(1S)-1-(piperidin-4-yl)ethyl]amino}phenyl)-1,3,4-oxadiazol-2(3H)-one] |
| 27 | NCCCNc1cc(-c2n[nH]c(=O)o2)ccc1C(F)(F)F [Example 2, 5-{3-[(3-aminopropyl)amino]-4-(trifluoromethyl)phenyl}-1,3,4-oxadiazol-2(3H)-one] |
| 23 | O=c1[nH]nc(-c2ccc(C(F)(F)F)c(N[C@@H](C3CCNCC3)C(F)(F)F)c2)o1 [Example 147, 5-[4-(trifluoromethyl)-3-{[(1S)-2,2,2-trifluoro-1-(piperidin-4-yl)ethyl]amino}phenyl]-1,3,4-oxadiazol-2(3H)-one hydrochloride] |
| 16 | CC(C[C@H]1CCNC1)Nc1cc(-c2n[nH]c(=O)o2)ccc1C(F)(F)F (stereo partly drawn) [Example 136, 5-[3-({1-[(3R)-pyrrolidin-3-yl]propan-2-yl}amino)-4-(trifluoromethyl)phenyl]-1,3,4-oxadiazol-2(3H)-one hydrochloride] |
| 14 | CC(C[C@@H]1CCNC1)Nc1cc(-c2n[nH]c(=O)o2)ccc1C(F)(F)F (stereo partly drawn) [Example 134, 5-[3-({1-[(3S)-pyrrolidin-3-yl]propan-2-yl}amino)-4-(trifluoromethyl)phenyl]-1,3,4-oxadiazol-2(3H)-one hydrochloride] |
